Reference: PMC9953095, “Design, Synthesis and Biological Evaluation of Quinazolinamine Derivatives as Breast Cancer Resistance Protein and P-Glycoprotein Inhibitors with Improved Metabolic Stability” (Biomolecules, 2023)

Tests used:
[1] = system: P-gp localization in KB-C2 cells; assay: Immunofluorescence assay of P-gp localization in KB-C2 cells; format: cell-based, human; conditions: Figure 8B
Method: For immunofluorescence analysis, parental and drug-resistant cells were seeded in 24-well plates at 10,000–20,000 cells/well and incubated for 24 h. The cells were incubated with or without cyclopropyl quinazolinamine 22 or azide quinazolinamine 33 for 24 h, 48 h, and 72 h. Thereafter, cells were washed with PBS and fixed with 4% paraformaldehyde for 10 min at room temperature and then rinsed with PBS twice, followed by permeabilization with 1% Triton X-100 for 10 min at 4 °C. The cells were again washed twice with PBS, and then blocked with 6% BSA for 1 h at 37 °C. Fixed cells were incubated with monoclonal antibody against the BCRP protein (BXP 21) (Sigma-Aldrich, Inc., St. Louis, MO) (1:1000) or P-gp (F4) (Sigma-Aldrich, Inc., St. Louis, MO, USA) overnight at 4 °C, followed by two washes with PBS. The cells were then further incubated with Alexa flour 488 goat anti-mouse IgG (1:1000) (Abcam plc.) for 2 h at 37 °C. After the cells were washed twice with PBS, 4′,6-diamidino-2-phenylindole (DAPI) (2 µg/mL) was used for nuclear counterstaining. The immunofluorescence images were generated using a Nikon TE-2000S fluorescence microscope (Nikon Instruments Inc, Melville, NY, USA).

[2] = molecular target: T1, BCRP ATPase (Homo sapiens, UniProt Q9UNQ0); assay: Vanadate-sensitive BCRP ATPase assay; format: biochemical; conditions: membrane vesicles of High Five insect cells; Figure 10A,B
T1 construct: host or cells: High Five insect cells (membrane vesicles)
T1 sequence (Q9UNQ0 1-655): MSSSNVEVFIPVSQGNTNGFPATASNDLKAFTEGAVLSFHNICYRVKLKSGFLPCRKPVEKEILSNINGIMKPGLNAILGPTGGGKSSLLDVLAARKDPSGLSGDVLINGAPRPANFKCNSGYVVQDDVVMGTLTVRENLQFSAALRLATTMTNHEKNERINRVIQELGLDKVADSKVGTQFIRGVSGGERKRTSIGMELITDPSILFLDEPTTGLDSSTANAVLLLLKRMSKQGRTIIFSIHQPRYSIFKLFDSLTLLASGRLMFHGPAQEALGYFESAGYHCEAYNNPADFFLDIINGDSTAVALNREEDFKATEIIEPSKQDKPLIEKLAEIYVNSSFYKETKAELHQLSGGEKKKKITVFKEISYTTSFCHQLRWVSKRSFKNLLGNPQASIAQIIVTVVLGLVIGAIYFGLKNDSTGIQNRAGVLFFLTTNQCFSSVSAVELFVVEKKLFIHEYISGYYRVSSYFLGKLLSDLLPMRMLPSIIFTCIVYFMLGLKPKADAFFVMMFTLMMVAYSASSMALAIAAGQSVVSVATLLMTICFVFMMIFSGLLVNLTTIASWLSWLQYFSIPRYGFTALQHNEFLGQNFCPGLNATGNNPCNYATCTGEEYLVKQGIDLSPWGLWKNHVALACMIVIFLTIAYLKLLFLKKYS
Method: (§1) The vanadate (Vi)-sensitive ATPase activity of BCRP and P-gp in the membrane vesicles of High Five insect cells was measured as described previously. The results were presented as vanadate-sensitive ATPase activities by determining the difference in inorganic phosphate liberation measured in the presence and absence of sodium orthovanadate.

[3] = molecular target: T2, P-gp ATPase (Homo sapiens, UniProt P08183); assay: Vanadate-sensitive P-gp ATPase assay; format: biochemical; conditions: membrane vesicles of High Five insect cells; Figure 10C
T2 construct: host or cells: High Five insect cells (membrane vesicles)
Method: as §1

T2 sequence (P08183 whole entry): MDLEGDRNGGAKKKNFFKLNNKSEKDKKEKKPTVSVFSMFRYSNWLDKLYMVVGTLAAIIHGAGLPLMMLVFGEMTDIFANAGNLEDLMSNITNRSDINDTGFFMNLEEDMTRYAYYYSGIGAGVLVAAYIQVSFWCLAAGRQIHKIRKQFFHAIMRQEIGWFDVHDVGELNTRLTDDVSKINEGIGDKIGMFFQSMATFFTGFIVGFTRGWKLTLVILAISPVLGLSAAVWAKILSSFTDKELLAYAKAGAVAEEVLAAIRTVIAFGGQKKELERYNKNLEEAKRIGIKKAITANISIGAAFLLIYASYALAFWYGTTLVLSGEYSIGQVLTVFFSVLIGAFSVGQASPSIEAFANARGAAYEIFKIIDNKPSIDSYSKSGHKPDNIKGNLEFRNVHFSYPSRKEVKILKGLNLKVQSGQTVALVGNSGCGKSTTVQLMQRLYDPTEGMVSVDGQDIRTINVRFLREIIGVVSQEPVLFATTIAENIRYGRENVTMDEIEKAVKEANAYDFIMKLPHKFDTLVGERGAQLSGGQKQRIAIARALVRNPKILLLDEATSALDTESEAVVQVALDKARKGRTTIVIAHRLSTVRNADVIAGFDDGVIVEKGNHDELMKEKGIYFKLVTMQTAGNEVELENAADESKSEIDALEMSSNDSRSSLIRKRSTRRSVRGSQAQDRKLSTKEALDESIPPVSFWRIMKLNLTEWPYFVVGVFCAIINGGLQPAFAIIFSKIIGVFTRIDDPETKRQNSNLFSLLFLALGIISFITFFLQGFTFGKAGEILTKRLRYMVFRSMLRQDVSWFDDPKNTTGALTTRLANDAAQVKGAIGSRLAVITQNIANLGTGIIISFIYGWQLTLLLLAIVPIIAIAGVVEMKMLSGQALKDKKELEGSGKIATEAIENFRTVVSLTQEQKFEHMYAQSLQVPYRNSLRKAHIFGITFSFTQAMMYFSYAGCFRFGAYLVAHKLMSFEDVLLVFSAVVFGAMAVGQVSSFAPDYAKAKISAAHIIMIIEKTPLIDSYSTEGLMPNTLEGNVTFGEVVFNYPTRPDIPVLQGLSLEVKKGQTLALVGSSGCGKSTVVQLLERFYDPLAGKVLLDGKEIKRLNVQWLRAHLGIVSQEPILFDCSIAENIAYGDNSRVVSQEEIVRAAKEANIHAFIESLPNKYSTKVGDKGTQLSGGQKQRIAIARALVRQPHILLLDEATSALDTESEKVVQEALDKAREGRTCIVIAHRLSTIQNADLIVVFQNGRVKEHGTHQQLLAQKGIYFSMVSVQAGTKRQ

effect on Vi-sensitive BCRP ATPase activity (ATP hydrolysis) [2]: significantly stimulated
effect on Vi-sensitive P-gp ATPase activity [3]: neither stimulate or inhibit
Compound: c1ccc2c(Nc3ccc(C4CC4)cc3)nc(-c3ccncc3)nc2c1 [Compound 22, N-(4-Cyclopropylphenyl)-2-(pyridin-4-yl)quinazolin-4-amine]
P-gp fluorescence on the membranes ([1]; 5 μM at 72 h): decreased slightly
P-gp fluorescence on the membranes ([1]; 5 μM for 24 and 48 h): did not decrease significantly
